# Measured values as given in US20060211698A1, “Bicyclic heteroaryl derivatives for treating viruses” (Genelabs, Inc., priority 2005, published 2006).
# Target: T1, HCV-NS5b (Hepatitis C virus genotype 1b, UniProt Q9WMX2)
# T1 construct: The cloned fragment was missing the C terminus 21 amino acid residues; (His)6 (C); made in house; host or cells: XL-1 cells (E. coli)
# Assay: HCV-NS5b Enzyme Assay
# Type: biochemical
# Conditions: 1 μM test compound; incorporation of [3H]-UTP, 37° C., 2 hours
# Method in brief: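 The NS5B construct lacks its C-terminal 21 residues, carries a C-terminal His6 tag and was expressed in E. coli. [^3H]-UTP incorporation on a biotinylated HCV heteropolymeric template (10 ng/μL) with 10 μM each NTP, pH 7.5, 5 mM MgCl2 and 5% DMSO ran 2 h at 37° C and was read by SPA scintillation. IC50s came from 10-point 2-fold series starting at 50 or 2 μM.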
row,SMILES,inhibition at 1 µM [%]
1,"Cc1nc(C)c(-c2ccc3cc(-c4c(C5CCCCC5)c5ccc(C(=O)O)cc5n4CC(=O)N4CCOCC4)ccc3n2)o1 [Compound 260, 3-Cyclohexyl-2-[2-(2,4-dimethyl-oxazol-5-yl)-quinolin-6-yl]-1-(2-morpholin-4-yl-2-oxo-ethyl)-1H-indole-6-carboxylic acid]",96
2,"O=C(O)c1ccc2c(C3CCCCC3)c(-c3ccc4nc(-c5cccc(F)c5)ccc4c3)n(CC(=O)N3CCOCC3)c2c1 [Compound 261, 3-Cyclohexyl-2-[2-(3-fluoro-phenyl)-quinolin-6-yl]-1-(2-morpholin-4-yl-2-oxo-ethyl)-1H-indole-6-carboxylic acid]",97.1
3,"O=C(O)c1ccc2c(C3CCCCC3)c(-c3ccc4nc(-c5cccc(Br)c5)ccc4c3)n(CC(=O)N3CCOCC3)c2c1 [Compound 262, 2-[2-(3-Bromo-phenyl)-quinolin-6-yl]-3-cyclohexyl-1-(2-morpholin-4-yl-2-oxo-ethyl)-1H-indole-6-carboxylic acid]",97.3
4,"O=C(O)c1ccc2c(C3CCCCC3)c(-c3ccc4nc(-c5ccc(C(F)(F)F)cc5)ccc4c3)n(CC(=O)N3CCOCC3)c2c1 [Compound 263, 3-Cyclohexyl-1-(2-morpholin-4-yl-2-oxo-ethyl)-2-[2-(4-trifluoromethyl-phenyl)-quinolin-6-yl]-1H-indole-6-carboxylic acid]",94.4
5,"Nc1cccc(-c2ccc3cc(-c4c(C5CCCCC5)c5ccc(C(=O)O)cc5n4CC(=O)N4CCOCC4)ccc3n2)c1 [Compound 264, 2-[2-(3-Amino-phenyl)-quinolin-6-yl]-3-cyclohexyl-1-(2-morpholin-4-yl-2-oxo-ethyl)-1H-indole-6-carboxylic acid]",93
6,"O=C(O)c1ccc2c(C3CCCCC3)c(-c3ccc4nc(-c5ccc(F)cc5)ccc4c3)n(CC(=O)N3CCOCC3)c2c1 [Compound 265, 3-Cyclohexyl-2-[2-(4-fluoro-phenyl)-quinolin-6-yl]-1-(2-morpholin-4-yl-2-oxo-ethyl)-1H-indole-6-carboxylic acid]",96.3
7,"O=C(O)c1ccc2c(C3CCCCC3)c(-c3ccc4nc(-c5ccc(F)c(F)c5)ccc4c3)n(CC(=O)N3CCOCC3)c2c1 [Compound 266, 3-Cyclohexyl-2-[2-(3,4-difluoro-phenyl)-quinolin-6-yl]-1-(2-morpholin-4-yl-2-oxo-ethyl)-1H-indole-6-carboxylic acid]",97.1
8,"O=C(O)c1ccc2c(C3CCCCC3)c(-c3ccc4nc(-c5ccccc5C(F)(F)F)ccc4c3)n(CC(=O)N3CCOCC3)c2c1 [Compound 267, 3-Cyclohexyl-1-(2-morpholin-4-yl-2-oxo-ethyl)-2-[2-(2-trifluoromethyl-phenyl)-quinolin-6-yl]-1H-indole-6-carboxylic acid]",94.6
9,"Cc1nccnc1-c1ccc2cc(-c3c(C4CCCCC4)c4ccc(C(=O)O)cc4n3CC(=O)N3CCOCC3)ccc2n1 [Compound 268, 3-Cyclohexyl-2-[2-(3-methyl-pyrazin-2-yl)-quinolin-6-yl]-1-(2-morpholin-4-yl-2-oxo-ethyl)-1H-indole-6-carboxylic acid]",96.1
10,"CCOc1ncc(-c2ccc3cc(-c4c(C5CCCCC5)c5ccc(C(=O)O)cc5n4CC(=O)N4CCOCC4)ccc3n2)c(C)n1 [Compound 269, 3-Cyclohexyl-2-[2-(2-ethoxy-4-methyl-pyrimidin-5-yl)-quinolin-6-yl]-1-(2-morpholin-4-yl-2-oxo-ethyl)-1H-indole-6-carboxylic acid]",93.6
11,"COc1ccc(F)c(-c2ccc3cc(-c4c(C5CCCCC5)c5ccc(C(=O)O)cc5n4CC(=O)N4CCOCC4)ccc3n2)c1 [Compound 270, 3-Cyclohexyl-2-[2-(2-fluoro-5-methoxy-phenyl)-quinolin-6-yl]-1-(2-morpholin-4-yl-2-oxo-ethyl)-1H-indole-6-carboxylic acid]",95
12,"Cn1cccc1-c1ccc2cc(-c3c(C4CCCCC4)c4ccc(C(=O)O)cc4n3CC(=O)N3CCOCC3)ccc2n1 [Compound 271, 3-Cyclohexyl-2-[2-(1-methyl-1H-pyrrol-2-yl)-quinolin-6-yl]-1-(2-morpholin-4-yl-2-oxo-ethyl)-1H-indole-6-carboxylic acid]",100
13,"COc1ccc(-c2ccc3cc(-c4c(C5CCCCC5)c5ccc(C(=O)O)cc5n4CC(=O)N4CCOCC4)ccc3n2)c(OC)c1OC [Compound 272, 3-Cyclohexyl-1-(2-morpholin-4-yl-2-oxo-ethyl)-2-[2-(2,3,4-trimethoxy-phenyl)-quinolin-6-yl]-1H-indole-6-carboxylic acid]",101
14,"COc1ccc(-c2ccc3cc(-c4c(C5CCCCC5)c5ccc(C(=O)O)cc5n4CC(=O)N4CCOCC4)ccc3n2)cc1F [Compound 273, 3-Cyclohexyl-2-[2-(3-fluoro-4-methoxy-phenyl)-quinolin-6-yl]-1-(2-morpholin-4-yl-2-oxo-ethyl)-1H-indole-6-carboxylic acid]",99.4
15,"Cc1nc(C)c(-c2ccc3cc(-c4c(C5CCCCC5)c5ccc(C(=O)O)cc5n4CC(=O)N4CCC(N(C)C)CC4)ccc3n2)s1 [Compound 274, 3-Cyclohexyl-1-[2-(4-dimethylamino-piperidin-1-yl)-2-oxo-ethyl]-2-[2-(2,4-dimethyl-thiazol-5-yl)-quinolin-6-yl]-1H-indole-6-carboxylic acid]",96
16,"CCN(CC)C1CCN(C(=O)Cn2c(-c3ccc4nc(-c5sc(C)nc5C)ccc4c3)c(C3CCCCC3)c3ccc(C(=O)O)cc32)CC1 [Compound 275, 3-Cyclohexyl-1-[2-(4-diethylamino-piperidin-1-yl)-2-oxo-ethyl]-2-[2-(2,4-dimethyl-thiazol-5-yl)-quinolin-6-yl]-1H-indole-6-carboxylic acid]",98.9

# Second part, the molecule after the results:
row,inhibition at 1 µM [%],SMILES
1,97.6,"O=C(O)c1ccc2c(C3CCCCC3)c(-c3ccc4nc(-c5ccccc5Cl)ccc4c3)n(CC(=O)N3CCOCC3)c2c1 [Compound 276, 2-[2-(2-Chloro-phenyl)-quinolin-6-yl]-3-cyclohexyl-1-(2-morpholin-4-yl-2-oxo-ethyl)-1H-indole-6-carboxylic acid]"
2,96.3,"Cc1nc(C)c(-c2ccc3cc(-c4c(C5CCCCC5)c5ccc(C(=O)O)cc5n4CC(=O)N4CCCC4C)ccc3n2)s1 (stereo not drawn) [Compound 277, 3-Cyclohexyl-2-[2-(2,4-dimethyl-thiazol-5-yl)-quinolin-6-yl]-1-[2-(2-methyl-pyrrolidin-1-yl)-2-oxo-ethyl]-1H-indole-6-carboxylic acid]"
3,91.8,"Cc1nc(C)c(-c2ccc3cc(-c4c(C5CCCCC5)c5ccc(C(=O)O)cc5n4CC(=O)N4CCC(N5CCOCC5)CC4)ccc3n2)s1 [Compound 278, 3-Cyclohexyl-2-[2-(2,4-dimethyl-thiazol-5-yl)-quinolin-6-yl]-1-[2-(4-morpholin-4-yl-piperidin-1-yl)-2-oxo-ethyl]-1H-indole-6-carboxylic acid]"
4,100,"Cc1nc(C)c(-c2ccc3cc(-c4c(C5CCCCC5)c5ccc(C(=O)O)cc5n4CC(=O)N4C(C)COCC4C)ccc3n2)s1 (stereo not drawn) [Compound 279, 3-Cyclohexyl-1-[2-(3,5-dimethyl-morpholin-4-yl)-2-oxo-ethyl]-2-[2-(2,4-dimethyl-thiazol-5-yl)-quinolin-6-yl]-1H-indole-6-carboxylic acid]"
5,97.7,"Cc1nc(C)c(-c2ccc3cc(-c4c(C5CCCCC5)c5ccc(C(=O)O)cc5n4CC(=O)N4CCC(C)CC4)ccc3n2)s1 [Compound 280, 3-Cyclohexyl-2-[2-(2,4-dimethyl-thiazol-5-yl)-quinolin-6-yl]-1-[2-(4-methyl-piperidin-1-yl)-2-oxo-ethyl]-1H-indole-6-carboxylic acid]"
6,77.6,"Cc1sc(-c2ccc3cc(-c4c(C5CCCCC5)c5ccc(C(=O)O)cc5n4CC(=O)N4CCOCC4)ccc3n2)c(C)[n+]1[O-] [Compound 281, 3-Cyclohexyl-2-[2-(2,4-dimethyl-3-oxy-thiazol-5-yl)-quinolin-6-yl]-1-(2-morpholin-4-yl-2-oxo-ethyl)-1H-indole-6-carboxylic acid]"
7,87.8,"Cc1nc(C)c(-c2ccc3cc(-c4c(C5CCCCC5)c5ccc(C(=O)O)cc5n4CC(=O)N4CCOCC4)cc(Br)c3n2)s1 [Compound 282, 2-[8-Bromo-2-(2,4-dimethyl-thiazol-5-yl)-quinolin-6-yl]-3-cyclohexyl-1-(2-morpholin-4-yl-2-oxo-ethyl)-1H-indole-6-carboxylic acid]"
8,85.7,"Cc1nc(C)c(-c2ccc3cc(-c4c(C5CCCCC5)c5ccc(C(=O)O)cc5n4CCCN(C)C)ccc3n2)s1 [Compound 286, 3-Cyclohexyl-1-(3-dimethylamino-propyl)-2-[2-(2,4-dimethyl-thiazol-5-yl)-quinolin-6-yl]-1H-indole-6-carboxylic acid]"
9,95.2,"Cc1nc(C)c(-c2ccc3cc(-c4c(C5CCCCC5)c5ccc(C(=O)O)cc5n4Cc4ccccc4)ccc3n2)s1 [Compound 287, 1-Benzyl-3-cyclohexyl-2-[2-(2,4-dimethyl-thiazol-5-yl)-quinolin-6-yl]-1H-indole-6-carboxylic acid]"
10,95.7,"Cc1nc(C)c(-c2ccc3cc(-c4c(C5CCCCC5)c5ccc(C(=O)O)cc5n4Cc4ccncc4)ccc3n2)s1 [Compound 289, 3-Cyclohexyl-2-[2-(2,4-dimethyl-thiazol-5-yl)-quinolin-6-yl]-1-pyridin-4-ylmethyl-1H-indole-6-carboxylic acid]"
11,79.1,"Cc1nc(C)c(-c2ccc3cc(-c4c(C5CCCCC5)c5ccc(C(=O)O)cc5n4CCN4CCOCC4)ccc3n2)s1 [Compound 290, 3-Cyclohexyl-2-[2-(2,4-dimethyl-thiazol-5-yl)-quinolin-6-yl]-1-(2-morpholin-4-yl-ethyl)-1H-indole-6-carboxylic acid]"
